Data set [1] is described as follows: Cytotoxicity against mouse B16F0 cells assessed as hexosaminidase level after 72 hrs by colorimetric analysis. As to conditions: B16F0, 72 h. The class given is functional, cell-based.
Data set [2] in a line: Selectivity ratio of IC50 for mouse NMuMG cells to IC50 for mouse B16F0 cells. The class given is ADME, cell-based. To be noted: NMuMG cells and B16F0 cells, read-out: Ratio IC50.
Data set [3] relates to HeLa. As to the kind of experiment: Cytotoxicity against human HeLa cells assessed as hexosaminidase level after 72 hrs by colorimetric analysis. In kind it is functional, cell-based.
Data set [4] is described as follows: Selectivity ratio of IC50 for mouse NMuMG cells to IC50 for human HeLa cells. The class given is ADME, cell-based. To be noted: NMuMG cells and HeLa cells, read-out: Ratio IC50.
Data set [5] is described as follows: Cytotoxicity against mouse NMuMG cells assessed as hexosaminidase level after 72 hrs by colorimetric analysis. In kind it is cell-based.
The test system of data set [6] is HeLa. Nature of the data set: Cytotoxicity against human HeLa cells assessed as growth inhibition at 20 uM after 72 hrs by colorimetric analysis relative to control. The class given is functional. As to conditions: read-out: GI.

The record followed here is ChEMBL document CHEMBL3132828, “In vitro anticancer activity and SAR studies of triazolyl aminoacyl(peptidyl) penicillins” (Medchemcomm, 2014).

SMILES strings stand for the structures. pIC50: −log10 of the molar value.

Usually pIC50 stands for the negative decadic logarithm of the IC50, by convention in mol/L. For `COC(=O)[C@H](Cc1ccccc1)NC(=O)[C@H](CC(C)C)NC(=O)c1cn(C[C@@H]2N3C(=O)C(Br)(Br)[C@H]3S(=O)(=O)C2(C)C)nn1`, the pIC50 in data set [1] was 5.70; in data set [3], 5.70; in data set [5] it was 5.15. Moreover, the selectivity ratio in data set [2] and in data set [4] was 3.5 throughout.

For `COC(=O)[C@H](Cc1ccc(O)cc1)NC(=O)[C@H](CC(C)C)NC(=O)c1cn(C[C@@H]2N3C(=O)C(Br)(Br)[C@H]3SC2(C)C)nn1`, the pIC50 in data set [1] was 4.66; in data set [5] it was less than 3.80. Besides, the selectivity ratio in data set [2] was more than 7. For the same compound, the inhibition of growth at 20 µM in data set [6] is less than 50%.

Regarding `COC(=O)[C@H](CC(C)C)NC(=O)[C@H](CC(C)C)NC(=O)c1cn(C[C@@H]2N3C(=O)C(Br)(Br)[C@H]3SC2(C)C)nn1`, the pIC50 was 5.40 in data set [1], 5.05 in data set [3] and 4.06 in data set [5]. Also, the selectivity ratio in data set [2] worked out at 22; in data set [4], 10.

As to `COC(=O)[C@H](Cc1ccccc1)NC(=O)[C@H](CC(C)C)NC(=O)c1cn(C[C@@H]2N3C(=O)C(Br)(Br)[C@H]3SC2(C)C)nn1`, the pIC50 was 5.52 in data set [1], 5.52 in data set [3] and 3.99 in data set [5]. Further, the selectivity ratio in data set [2] and in data set [4] was 34 each time.

With `COC(=O)[C@H](Cc1ccccc1)NC(=O)c1cn(C[C@@H]2N3C(=O)C(Br)(Br)[C@H]3SC2(C)C)nn1`, the pIC50 in data set [1] is 5.00; in data set [3] it was 4.85; in data set [5], 3.90. Also, the selectivity ratio amounted to 12.5 in data set [2] and 9 in data set [4].

In the case of `COC(=O)[C@H](Cc1ccccc1)NC(=O)[C@H](CCSC)NC(=O)c1cn(C[C@@H]2N3C(=O)C(Br)(Br)[C@H]3SC2(C)C)nn1`, the pIC50 was 5.05 in data set [1], 5.00 in data set [3] and 3.56 in data set [5]. The selectivity ratio in data set [2] is 30.5; in data set [4], 27.5.

As to `COC(=O)[C@H](Cc1ccccc1)NC(=O)[C@@H]1CCCN1C(=O)c1cn(C[C@@H]2N3C(=O)C(Br)(Br)[C@H]3SC2(C)C)nn1`, the negative-log IC50 (pIC50) in data set [1] was 4.96; in data set [3], 4.77; in data set [5], 4.26. For the same compound, the selectivity ratio in data set [2] is 5; in data set [4], 3.

In the case of `COC(=O)[C@H](Cc1ccccc1)NC(=O)[C@H](CC(C)C)NC(=O)c1cn(C[C@@H]2N3C(=O)C[C@H]3SC2(C)C)nn1`, the results for the pIC50 in data set [1], in data set [3] and in data set [5] were 5.00, 4.89 and 3.45, respectively. Also, the selectivity ratio was found to be 35.5 in data set [2] and 27 in data set [4].

Take `CC[C@H](C)[C@H](NC(=O)c1cn(C[C@@H]2N3C(=O)C(Br)(Br)[C@H]3SC2(C)C)nn1)C(=O)N[C@@H](Cc1ccccc1)C(=O)OC`: the pIC50 in data set [1] is 5.05; in data set [3], 4.82; in data set [5], 4.08. Further, the selectivity ratio was 9 in data set [2] and 5.5 in data set [4].

Regarding `CC[C@H](C)[C@H](NC(=O)c1cn(C[C@@H]2N3C(=O)C(Br)(Br)[C@H]3SC2(C)C)nn1)C(=O)N[C@@H](Cc1ccc(O)cc1)C(=O)OC`, the pIC50 in data set [1] is 4.70; in data set [5], 4.02. Also, in data set [2], the selectivity ratio came out at 5. The inhibition of growth at 20 µM in data set [6] is less than 50%.

In the case of `COC(=O)[C@H](Cc1ccccc1)NC(=O)[C@@H](NC(=O)c1cn(C[C@@H]2N3C(=O)C(Br)(Br)[C@H]3SC2(C)C)nn1)C(C)C`, the pIC50 in data set [1] was 5.05; in data set [3] it was 4.80; in data set [5], 3.77. In addition, the selectivity ratio in data set [2] was found to be 19; in data set [4], 10.6.
